The values that follow come from patent US5693617A, “Inhibitors of the 26s proteolytic complex and the 20s proteasome contained therein” (ProScript, Inc., priority 1995, dated 1997).

Non-standard residues stand in square brackets, D forms with d. Residues, ends and D or L forms follow the SMILES beside them. ξ: configuration not given here. *: point of attachment. 1Nal = N[C@@H](Cc1cccc2ccccc12)C(=O)O; 2Nal = N[CH](Cc1ccc2ccccc2c1)C(=O)O; Cha = N[C@@H](CC1CCCCC1)C(=O)O; Ile(3ξ) = CCC(C)[C@H](N)C(=O)O; Nva = CCC[C@H](N)C(=O)O; Cbz = O=C(OCc1ccccc1)*; Boc = CC(C)(C)OC(=O)*; Bn = c1ccc(C*)cc1

One assay relates to PC12 cells.
Assay: not given
The following applies: Tsubuki et al. 1993; cited from earlier work.
On to `CC(C)C[C@@H](C=O)NC(=O)[C@H](CC(C)C)NC(=O)[C@H](CC(C)C)NC(=O)OCc1ccccc1` [Z-Leu-Leu-Leu-H, Z-L-Leucine-L-Leucine-L-Leucinal] (Cbz-Leu-Leu-Leu-aldehyde), for which the “Optimal concentration for initiating neurite outgrowth” value was 30 nM.

Another assay addresses T1, 20S proteasome (Oryctolagus cuniculus, UniProt G1T4Q9).
T1 sequence (G1T4Q9 60-263): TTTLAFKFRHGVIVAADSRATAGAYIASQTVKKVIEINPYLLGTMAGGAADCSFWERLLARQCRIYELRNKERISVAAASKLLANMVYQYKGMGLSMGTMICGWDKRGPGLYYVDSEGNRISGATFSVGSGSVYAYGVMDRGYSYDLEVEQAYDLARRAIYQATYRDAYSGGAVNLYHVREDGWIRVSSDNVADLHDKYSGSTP
T1 sequence (G1SU71 1-241 partner): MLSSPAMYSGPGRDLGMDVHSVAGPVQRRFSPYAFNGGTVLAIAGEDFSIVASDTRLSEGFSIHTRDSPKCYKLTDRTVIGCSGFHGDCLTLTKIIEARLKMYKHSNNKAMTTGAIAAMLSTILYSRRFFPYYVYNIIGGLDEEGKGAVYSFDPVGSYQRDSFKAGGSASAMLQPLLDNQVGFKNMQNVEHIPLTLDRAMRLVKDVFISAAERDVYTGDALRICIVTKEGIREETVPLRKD
Description: Inhibition of the 20S proteasome peptidase activity (kinetic experiments). Format: biochemical, Rabbit. The note with it: Rabbit muscle, SDS-activated, substrate Suc-LLVY-AMC; read-out: Ki 20S. The source says: Tables I-III summarize results from kinetic experiments that measured the inhibition of the 20S and 26S proteasomes, as well as cathepsin B and calpain, enzymes that may also be involved in muscle protein turnover. In these tables, Ki values are reported, which are dissociation constants for the equilibrium that is established when enzyme and inhibitor interact to form the enzyme:inhibitor complex.
The substances and assay conditions are briefly summarized in the footnotes to Table I. MG 101 and MG 102, also known as Calpain Inhibitor I and II, were purchased from Calbiochem as catalogue products.
(^a) Rabbit muscle. SDSactivated. Substrate: SucLLVYAMC.
As to `CC(C)C[C@H](NC(=O)OCc1ccccc1)C(=O)N[C@@H](CC(C)C)C(=O)N[C@H](C=O)CC1CCCCC1` [MG 129] (Cbz-Leu-Leu-[Cha]-aldehyde), the inhibitory constant (Ki) came out at 0.074 µM.

`CC(C)C[C@H](NC(=O)OCc1ccccc1)C(=O)N[C@@H](CC(C)C)C(=O)N[C@H](C=O)Cc1ccc(O)cc1` [MG 131] (Cbz-Leu-Leu-Tyr-aldehyde): the inhibition constant Ki came out at 0.007 µM.

As to `CC(C)C[C@@H](C=O)NC(=O)[C@H](CC(C)C)NC(=O)[C@H](CC(C)C)NC(=O)OCc1ccccc1` [MG 132] (Cbz-Leu-Leu-Leu-aldehyde), the Ki was 0.004 µM.

Consider `CCC(C)[C@@H](C=O)NC(=O)[C@H](CC(C)C)NC(=O)[C@H](CC(C)C)NC(=O)OCc1ccccc1` (stereo partly drawn) [MG 134] (Cbz-Leu-Leu-[Ile(3ξ)]-aldehyde), for which the Ki turned out to be 0.104 µM.

`CCC[C@@H](C=O)NC(=O)[C@H](CC(C)C)NC(=O)[C@H](Cc1cccc2ccccc12)NC(=O)OCc1ccccc1` [MG 142] (Cbz-[1Nal]-Leu-[Nva]-aldehyde): the Ki stood at 0.0002 µM.

With `CC(C)C[C@H](NC(=O)OCc1ccccc1)C(=O)N[C@@H](CC(C)C)C(=O)N[C@H](C=O)Cc1ccc(OCc2ccccc2)cc1` [MG 153] (Cbz-Leu-Leu-Tyr(Bn)-aldehyde), the Ki was 0.285 µM.

For the compound `CC(C)C[C@@H](C=O)NC(=O)[C@H](CC(C)C)NC(=O)[C@H](CC(C)C)NC(=O)OC(C)(C)C` [MG 155] (Boc-Leu-Leu-Leu-aldehyde), the Ki was found to be 0.047 µM.

For `CC(C)CC(C=O)NC(=O)C(Cc1ccc2ccccc2c1)NC(=O)OCc1ccccc1` (stereo not drawn) [MG 279, Z-Nal-Leu-H] (Cbz-[2Nal]-Leu-aldehyde; configuration not given here), the inhibitory constant (Ki) turned out to be 0.024 µM.

Another assay relates to chymotrypsin-like activity of the proteasome.
Assay: not given
The note with it: Orlowski 1990; cited from earlier work.
Turning to `CC(C)C[C@@H](C=O)NC(=O)CNC(=O)CNC(=O)OCc1ccccc1` [Z-Gly-Gly-Leu-H] (Cbz-Gly-Gly-Leu-aldehyde), the “Inhibition of the chymotrypsin-like activity of the proteasome” value is listed as “inhibits the chymotrypsin-like activity of the proteasome”.

The same assay, now with this note: Vinitsky et al. 1992; slow binding inhibitors; cited from earlier work.
`CSCC[C@@H](C=O)NC(=O)[C@H](CC(C)C)NC(=O)[C@H](CC(C)C)NC(C)=O` [Ac-LLM-H, N-acetyl-Leu-Leu-methioninal] (Ac-Leu-Leu-Met-aldehyde): the Ki was 33 µM.

Take `CC(C)C[C@H](NC(=O)OCc1ccccc1)C(=O)N[C@@H](CC(C)C)C(=O)N[C@H](C=O)Cc1ccccc1` [MG 110, Z-Leu-Leu-Phe-H] (Cbz-Leu-Leu-Phe-aldehyde): the Ki is 0.46 µM.

As to `CCOC(=O)C(=O)[C@H](Cc1ccccc1)NC(=O)[C@H](CC(C)C)NC(=O)[C@H](CC(C)C)NC(=O)OCc1ccccc1` [Z-Leu-Leu-Phe-COOEt], the Ki was 53 µM.
